How the values were obtained:
ERα or ERβ = assay: ERE-tk-Luc luciferase activation in U937 cells transfected with ERα or ERβ; format: cell-based; details: human monocytic U937 cells
Experimental: (§1) Plasmid Construction. […] ERβ mutants were created with QuikChange site-directed mutagenesis kits (Stratagene), by using oligonucleotides containing the mutation. The mutants were sequenced with Sequenase kits (Amersham Pharmacia) to verify the presence of the mutation.
(§2) U937 cells were maintained as described previously, whereas U2OS, MDA-MB435, and MCF-7 cells were maintained and subcultured in phenol red-free Dulbecco's modified Eagle's medium/F-12 media containing 5% fetal bovine serum, 2 mM glutamine, 50 units/ml penicillin, and 50 μg/ml streptomycin. For experiments, cells were collected, transferred to a cuvette, and then electroporated with a Bio-Rad gene pulser as described previously using 3 μg of reporter plasmid and 1 μg of ERα or ERβ expression vectors. After electroporation, the cells were re-suspended in media and plated at 1 ml/dish in 12-well multiplates. […] The concentration of hormone required to produce a half-maximal induction (EC50) or inhibition (IC50) of luciferase activity was calculated with the Prism curve-fitting program (Graph Pad Software, version 2.0b). […] The cells were plated in duplicate at a density of 25,000 cells/35-mm plate in tissue culture medium containing 3% stripped fetal bovine serum. […] After 8 days the cells were counted with a Coulter counter.

ERβ [1] = target: T1, ERβ (Homo sapiens, UniProt Q92731); details: in the presence of ERβ
Experimental: as §1, §2

ERβ [2] = target: T1, ERβ; assay: Repression of TNF-α activation of TNF-RE-tk-Luc in U2OS cells, ERβ; format: cell-based; parameters: expressed in transfected cells; host or cells: U2OS (human osteosarcoma)
Experimental: as §2
The extracts (a and b) were than decanted and only the soluble material was used.

TNF-RE-tk-Luc = assay: Antiestrogen effect on TNF-RE-tk-Luc (Example 2); format: cell-based; details: for effect on the repression induced by E2: TNF-RE-tk-Luc; for activation of TNF-RE-tk-Luc: antiestrogens, in contrast to E2
Experimental: as §1, §2

breast cancer = details: among 5129 women in the treatment group, median follow-up 40 months; cited from earlier work
[3] = system: estrogen receptor-positive breast cancer; details: five years of therapy; cited from earlier work
[4] = system: primary invasive breast cancer; details: women at high risk for breast cancer; cited from earlier work

T1 sequence (Q92731 whole entry): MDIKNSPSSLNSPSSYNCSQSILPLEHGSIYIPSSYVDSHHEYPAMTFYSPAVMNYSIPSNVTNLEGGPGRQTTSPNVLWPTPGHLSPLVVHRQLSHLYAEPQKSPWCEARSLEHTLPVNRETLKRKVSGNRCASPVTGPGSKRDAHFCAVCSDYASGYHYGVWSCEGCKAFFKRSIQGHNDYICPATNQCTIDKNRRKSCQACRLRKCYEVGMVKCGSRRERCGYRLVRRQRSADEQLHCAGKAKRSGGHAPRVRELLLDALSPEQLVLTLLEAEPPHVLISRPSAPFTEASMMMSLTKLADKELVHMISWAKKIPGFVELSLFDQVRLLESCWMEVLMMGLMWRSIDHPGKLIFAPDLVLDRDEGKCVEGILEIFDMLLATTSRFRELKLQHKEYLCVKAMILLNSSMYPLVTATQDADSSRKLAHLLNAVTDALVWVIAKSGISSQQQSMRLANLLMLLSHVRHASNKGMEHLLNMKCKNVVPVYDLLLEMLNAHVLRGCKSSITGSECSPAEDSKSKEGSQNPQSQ

C[C@]12CC[C@@H]3c4ccc(O)cc4CC[C@H]3[C@@H]1CC[C@@H]2O [E2, estradiol]
greater activation of the ERE in the presence of ERα compared to ERβ (ERα or ERβ): 10 fold | repression of TNF-α activation of TNF-RE-tk-Luc (ERβ [1]): 60-80% | repression of TNF-α activation of TNF-RE (ERβ [2]): 100%

C[C@]12CC[C@@H]3c4ccc(O)cc4C[C@@H](CCCCCCCCC[S+]([O-])CCCC(F)(F)C(F)(F)F)[C@H]3[C@@H]1CC[C@@H]2O (stereo partly shown) [ICI 182, 780]
effect on the repression induced by E2 (TNF-RE-tk-Luc): abolished | activation of TNF-RE-tk-Luc (TNF-RE-tk-Luc): 2 fold

O=C(c1ccc(OCCN2CCCCC2)cc1)c1c(-c2ccc(O)cc2)sc2cc(O)ccc12 [raloxifene]
effect on the repression induced by E2 (TNF-RE-tk-Luc): abolished | activation of TNF-RE-tk-Luc (TNF-RE-tk-Luc): 2 fold | cases of breast cancer (breast cancer): 13 cases

CC/C(=C(\c1ccccc1)c1ccc(OCCN(C)C)cc1)c1ccccc1 [tamoxifen]
effect on the repression induced by E2 (TNF-RE-tk-Luc): abolished | activation of TNF-RE-tk-Luc (TNF-RE-tk-Luc): 2 fold | reduction of mortality from breast cancer [3]: 22% | reduction of the risk of recurrences [3]: 42% | reduction of the risk of primary invasive breast cancer [4]: 49%
